Laboratory results as given in patent US8637038B2, “Methods for inhibiting allograft rejection” (Rigel Pharmaceuticals, Inc., priority 2011, dated 2014).

What was measured:
[1] = system: Syk, Lck, ZAP-70, VEGFR, INSR, EGFR and serine threonine kinases; assay: Panel of cell-based assays against non-JAK kinase targets
Procedure: The erythropoietin (EPO)-dependent survival of cultured human erythroid progenitor cells (CHEPs) was determined using CellTiter-Glo® Luminescent Cell Viability Assay (Promega). Human primary T cell activation was assessed by measuring IL-2 production by ELISA (R&D Systems, Minneapolis, Minn., USA) following plate-bound anti-CD3 and anti-CD28 stimulation (Anti-Human CD3; BD Biosciences; Anti-Human CD28; Immunotech; Prague, Czech Republic). The enzymatic activity of tryptase released by human cultured mast cells (CHMCs) upon stimulation with IgE was quantified by cleavage of the synthetic fluorescent peptide substrate Z-Ala-Lys-Arg-7-amino-4-methylcoumarin (MP Biomedicals, Solon, Ohio, USA) in tryptase buffer. B-cell receptor-dependent Erk phosphorylation was measured in Ramos cells by intracellular FACS (anti-pT202/pY204-ERK1/2-AlexaFluor488; BD Biosciences). […]
Growth factor-dependent protein phosphorylation was detected in HeLa cells by staining permeabilized cells with phospho-specific antibodies and quantified by chemiluminescence (Luminator, Wallac Multilabel Counter; Perkin Elmer). […] Human umbilical vein endothelial cells (HUVECs) were stimulated with VEGF and VEGFR2 phosphorylation was assessed by ELISA (100 ng/ml VEGF165, R&D Systems; Rabbit anti-phospho-VEGFR2 mAb, Cell Signaling Technology). […]

[2] = Five-day heart allograft study: side effects (clinical chemistry); assay type: in vivo, rat; conditions: five days
Procedure: Compound I and Compound III were provided by Rigel (South San Francisco, Calif.) and Tacrolimus was provided by Astellas (Munich, Germany). All drugs were administrated orally each in two different concentrations: Compound I LD (15 mg/kg BID; n=6) and HD (60 mg/kg BID; n=6); Compound III LD (5 mg/kg BID; n=6) and HD (20 mg/kg BID; n=6); Tac LD (1 mg/kg QD; n=6) and HD (4 mg/kg QD; n=6). Administration of all drugs was performed every day at the same time points. Tacrolimus was applied only once a day (QD) every 24 hours. During administration of Compound I (BID) and Compound III (BID) a 12 hour pause was kept in between each drug application.
Lew recipients of heterotopic BN heart transplants were randomly assigned to their group. Animals were either left untreated (groups 1 and 2; see Table 1,5-day study) or received their group specific medication (groups 3-8; see Table 1,5-day study) by oral application. An untreated syngeneic transplant group Lew-Lew was generated as control.
EDTA samples and sera were taken five days after transplantation for differential blood count, BUN, Creatinine, Cholesterol, HDL, LDL, Triglycerides, AST, and ALT, respectively. Analyses were performed by standard clinical chemistry procedures.

| Compound | inhibition of other (non-JAK) kinase targets in cells [1] | serum HDL, mean ([2]; HD (Compound I 60 mg/kg BID, Compound III 20 mg/kg BID, Tac 4 mg/kg QD), no medication mean 26.0) [mg/dL] | serum LDL, mean ([2]; LD (Compound III 5 mg/kg BID, Tac 1 mg/kg QD)) [mg/dL] |
| --- | --- | --- | --- |
| COc1cc(Nc2ncc(C)c(Nc3ccc4oc(=O)[nH]c4c3)n2)cc(C)c1F [Compound I, 5-(2-(4-fluoro-3-methoxy-5-methylphenylamino)-5-methylpyrimidin-4-ylamino)benzo[d]oxazol-2(3H)-one] | very limited inhibition |  |  |
| COc1cc(Nc2ncc(C)c(Nc3ccc4oc(=O)[nH]c4c3)n2)cc(C)c1C [Compound III, 5-(2-(3-methoxy-4,5-dimethylphenylamino)-5-methylpyrimidin-4-ylamino)benzol[d]oxazol-2-(3H)-one] | very limited inhibition | 46.3 | 19.6 |
